Measurements published in ChEMBL document CHEMBL5096178, “Synthesis and Biological Evaluation of Natural-Product-Inspired, Aminoalkyl-Substituted 1-Benzopyrans as Novel Antiplasmodial Agents” (J Med Chem, 2021).
Converted amounts (≈) assume the structure as drawn.

Columns and labels:
Plasmodium falciparum [1] = experiment: Inhibition of Plasmodium falciparum DHODH using DCIP as substrate at 10 uM relative to control
Plasmodium falciparum [2] = experiment: Antiprotozoal activity against erythrocytic stage Plasmodium falciparum NF54 assessed as parasite growth inhibition incubated for 48 hrs by [3H]hypoxanthine incorporation assay; format: functional, organism-based
[3] = system: Trypanosoma brucei rhodesiense; experiment: Antiprotozoal activity against Trypanosoma brucei rhodesiense STIB 900 bloodstream trypomastigote assessed as parasite growth inhibition incubated for 70 hrs by resazurin dye based assay; format: functional, organism-based; conditions: STIB 900, 70 h
Trypanosoma cruzi = experiment: Antiprotozoal activity against Trypanosoma cruzi Tulahuen C4 intracellular amastigote infected in rat L6 cells assessed as parasite growth inhibition incubated for 96 hrs in presence of CPRG/Nonidet by photometry; format: functional, organism-based; conditions: Tulahuen C4, L6, 96 h
Leishmania donovani [4] = experiment: Antiprotozoal activity against Leishmania donovani MHOM/ET/67/L82 axenic amastigote assessed as parasite growth inhibition incubated for resazurin dye based fluorometry; format: functional, organism-based
[5] = Cytotoxicity against rat L6 cells assessed as cell growth inhibition incubated for 70 hrs by Alamar Blue staining based […]; format: toxicity
[6] = Selectivity index, ratio of IC50 for rat L6 cells to IC50 for erythrocytic stage Plasmodium falciparum NF54; format: toxicity; conditions: read-out: Ratio IC50
[7] = Selectivity index, ratio of IC50 for rat L6 cells to IC50 for Trypanosoma brucei rhodesiense STIB 900 bloodstream trypomastigote; format: toxicity; conditions: read-out: Ratio IC50
[8] = Selectivity index, ratio of IC50 for rat L6 cells to IC50 for Trypanosoma cruzi Tulahuen C4 intracellular amastigote infected in rat L6 cells; format: toxicity, cell-based; conditions: read-out: Ratio IC50
[9] = Selectivity index, ratio of IC50 for rat L6 cells to IC50 for Leishmania donovani MHOM/ET/67/L82 axenic amastigote; format: toxicity; conditions: read-out: Ratio IC50
Plasmodium falciparum [10] = experiment: Inhibition of Plasmodium falciparum DHODH using DCIP as substrate at 50 uM relative to control
[11] = Displacement of [3H]-(+)-pentazocine from Sigma1 receptor derived from pig brain assessed as inhibition constant measured after 120 mins by scintillation counter analysis; format: tissue-based, Sus scrofa
Plasmodium berghei [12] = experiment: Antiplasmodial activity against GFP-transfected Plasmodium berghei ANKA infected in NMRI mouse assessed as parasitemia reduction at 30 mg/kg, ip administered for 4 consecutive days measured after 24 hrs by FACS analysis relative to control; format: functional; set-up: scale not given: the % may be the effect or the level left
Plasmodium berghei [13] = experiment: Antiplasmodial activity against GFP-transfected Plasmodium berghei ANKA infected in NMRI mouse assessed as parasitemia reduction at 60 mg/kg, po administered for 4 consecutive days measured after 24 hrs by FACS analysis relative to control; format: functional; set-up: scale not given: the % may be the effect or the level left
[14] = Drug metabolism in mouse liver microsomes assessed as 2,2-dimethyl-6-((3-phenylpropylamino)methyl)chroman-7-ol metabolite formation incubated for 90 mins in presence of NADPH/UDPGA by LC-MS analysis; format: ADME, Microsome; conditions: 1.5 h
[15] = Drug metabolism in mouse liver microsomes assessed as glucuronic acid conjugated metabolite formation incubated for 90 mins in presence of NADPH/UDPGA by LC-MS analysis; format: ADME, Microsome; conditions: 1.5 h
[16] = Drug metabolism in mouse liver microsomes assessed as (2R,3R,4S,5S,6R)-2-(2,2-dimethyl-6-((3-phenylpropylamino)methyl)chroman-7-ylperoxy)-6-(hydroxymethyl)tetrahydro-2H-pyran-3,4,5-triol metabolite formation incubated for 90 mins in presence of NADPH/UDPGA by LC-MS analysis; format: ADME, Microsome; conditions: 1.5 h
[17] = Drug concentration in plasma of NMRI mouse infected with GFP-transfected Plasmodium berghei ANKA administered intraperitoneally for 4 consecutive days measured after 1 hr by LC-MS analysis; format: ADME; conditions: ip, 97 h
[18] = Drug concentration in plasma of NMRI mouse infected with GFP-transfected Plasmodium berghei ANKA administered orally for 4 consecutive days measured after 1 hr by LC-MS analysis; format: ADME; conditions: po, 97 h
[19] = Drug metabolism in NMRI mouse infected with GFP-transfected Plasmodium berghei ANKA assessed as 2,2-dimethyl-6-((3-phenylpropylamino)methyl)chroman-7-ol metabolite formation administered intraperitoneally for 4 consecutive days measured after 1 hr by LC-MS analysis; format: ADME; conditions: in vivo, ip, 97 h
[20] = Drug metabolism in NMRI mouse infected with GFP-transfected Plasmodium berghei ANKA assessed as glucuronic acid conjugated metabolite formation administered intraperitoneally for 4 consecutive days measured after 1 hr by LC-MS analysis; format: ADME; conditions: in vivo, ip, 97 h
[21] = Drug metabolism in NMRI mouse infected with GFP-transfected Plasmodium berghei ANKA assessed as (2R,3R,4S,5S,6R)-2-(2,2-dimethyl-6-((3-phenylpropylamino)methyl)chroman-7-ylperoxy)-6-(hydroxymethyl)tetrahydro-2H-pyran-3,4,5-triol metabolite formation administered intraperitoneally for 4 consecutive days measured after 1 hr by LC-MS analysis; format: ADME; conditions: in vivo, ip, 97 h
[22] = Drug metabolism in NMRI mouse infected with GFP-transfected Plasmodium berghei ANKA assessed as 2,2-dimethyl-6-((3-phenylpropylamino)methyl)chroman-7-ol metabolite formation administered orally for 4 consecutive days measured after 1 hr by LC-MS analysis; format: ADME; conditions: in vivo, po, 97 h
[23] = Drug metabolism in NMRI mouse infected with GFP-transfected Plasmodium berghei ANKA assessed as glucuronic acid conjugated metabolite formation administered orally for 4 consecutive days measured after 1 hr by LC-MS analysis; format: ADME; conditions: in vivo, po, 97 h
[24] = Drug metabolism in NMRI mouse infected with GFP-transfected Plasmodium berghei ANKA assessed as (2R,3R,4S,5S,6R)-2-(2,2-dimethyl-6-((3-phenylpropylamino)methyl)chroman-7-ylperoxy)-6-(hydroxymethyl)tetrahydro-2H-pyran-3,4,5-triol metabolite formation administered orally for 4 consecutive days measured after 1 hr by LC-MS analysis; format: ADME; conditions: in vivo, po, 97 h
Plasmodium falciparum [25] = experiment: Inhibition of Plasmodium falciparum DHODH assessed as residual activity using DCIP as substrate at 10 uM relative to control
Plasmodium falciparum [26] = experiment: Inhibition of Plasmodium falciparum DHODH assessed as residual activity using DCIP as substrate at 50 uM relative to control
Plasmodium falciparum [27] = experiment: Antiprotozoal activity against Chloroquine-resistant Plasmodium falciparum K1 assessed as parasite growth inhibition; format: functional, organism-based
Plasmodium falciparum [28] = experiment: Potency index, ratio of Chloroquine IC50 to test compound IC50 for Chloroquine-resistant Plasmodium falciparum K1 assessed as parasite growth inhibition; format: functional
Plasmodium falciparum [29] = experiment: Antimalarial activity against chloroquine-sensitive Plasmodium falciparum D6 assessed as parasite growth inhibition by [3H]hypoxanthine growth inhibition assay; format: functional, organism-based
Leishmania donovani [30] = experiment: Antiprotozoal activity against Leishmania donovani MHOM-ET-67/L82 axenic amastigotes assessed as parasite growth inhibition incubated for 70 hrs by resazurin dye based inverted microscopy; conditions: MHOM-ET-67/L82, 70 h
Plasmodium falciparum [31] = experiment: Antimalarial activity against drug-sensitive Plasmodium falciparum 3D7 assessed as parasite growth inhibition incubated for 48 hrs by [3H]hypoxanthine incorporation assay; format: functional, organism-based
[32] = Displacement of [14C]lactate from Plasmodium falciparum FNT expressed in Saccharomyces cerevisiae incubated for 24 hrs by liquid scintillation counter method
Plasmodium falciparum [33] = experiment: Antiplasmodial activity against Plasmodium falciparum 3D7 assessed as parasite growth inhibition incubated for 24 hrs by FACS analysis; format: functional, organism-based

SMILES	IC50 (Plasmodium falciparum [2]) [µM]	IC50 [3] [µM]	IC50 (Trypanosoma cruzi) [µM]	IC50 (Leishmania donovani [4]) [µM]	IC50 at 70 h [5] [µM]	selectivity ratio [6]	selectivity ratio [7]	selectivity ratio [8]	selectivity ratio [9]	also measured
CC1(C)CCc2cc(CNCCCc3ccccc3)c(O)cc2O1	0.038	0.41	15	134	6.5	171	14	0.4	0.05	inhibition (Plasmodium falciparum [1]): 3%; inhibition (Plasmodium falciparum [10]): 1%; Ki [11]: 0.074 µM; Activity (Plasmodium berghei [12]): 66%; Activity (Plasmodium berghei [13]): 74%; Drug metabolism [14]: Metabolite_Detected; Drug metabolism [15]: Metabolite_Detected; Drug metabolism [16]: Metabolite_Detected; Drug uptake [17]: Active; Drug uptake [18]: Active; Drug metabolism [19]: Metabolite_Detected; Drug metabolism [20]: Metabolite_Detected; Drug metabolism [21]: Metabolite_Detected; Drug metabolism [22]: Metabolite_Detected; Drug metabolism [23]: Metabolite_Detected; Drug metabolism [24]: Metabolite_Detected; Activity (Plasmodium falciparum [25]): 106%; Activity (Plasmodium falciparum [26]): 90%
C[C@@H](NCc1ccccc1)c1cc2c(cc1O)OC(C)(C)C=C2	–	–	–	–	–	–	–	–	–	inhibition (Plasmodium falciparum [1]): 3%; IC50 (Plasmodium falciparum [27]): 0.02 µM; inhibition (Plasmodium falciparum [10]): 1%; Activity (Plasmodium falciparum [25]): 110%; Activity (Plasmodium falciparum [26]): 91%
CC(NCc1ccccc1)c1cc2c(cc1O)OC(C)(C)C=C2 (racemic)	–	–	–	–	–	–	–	–	–	IC50 (Plasmodium falciparum [27]): 0.026 µM; Ratio IC50 (Plasmodium falciparum [28]): 26
CCCCNCc1cc(C(C)(C)C)cc(-c2cnc(C(F)(F)F)c(F)c2)c1O	–	–	–	–	–	–	–	–	–	IC50 (Plasmodium falciparum [29]): 0.009 µM
CC(NCCCc1ccccc1)c1cc2c(cc1O)OC(C)(C)C=C2 (racemic)	–	–	–	–	–	–	–	–	–	inhibition (Plasmodium falciparum [1]): 3%; IC50 (Plasmodium falciparum [27]): 0.886 µM; Ratio IC50 (Plasmodium falciparum [28]): 13; inhibition (Plasmodium falciparum [10]): 4%; Activity (Plasmodium falciparum [25]): 116%; Activity (Plasmodium falciparum [26]): 98%
COCOc1cc2c(cc1CCCNCc1ccccc1)CCC(C)(C)O2	–	–	–	–	–	–	–	–	–	Ki [11]: 0.0024 µM
CC1(C)CCc2cc(CCCNCc3ccccc3)c(O)cc2O1	0.98	4.6	15	15	24	24	5	2	2	Ki [11]: 0.0048 µM
CCCCCCCCCCCCCCCCOP(=O)([O-])OCC[N+](C)(C)C [MILTEFOSINE]	–	–	–	–	–	–	–	–	–	IC50 (Leishmania donovani [30]): 0.471 µM
C[C@H](NCc1ccccc1)c1cc2c(cc1O)OC(C)(C)C=C2	–	–	–	–	–	–	–	–	–	inhibition (Plasmodium falciparum [1]): 5%; IC50 (Plasmodium falciparum [27]): 0.01 µM; inhibition (Plasmodium falciparum [10]): 1%; Activity (Plasmodium falciparum [25]): 116%; Activity (Plasmodium falciparum [26]): 96%
CC(C)(C)c1cc(O)c(CN)c(C(C)(C)C)c1	–	–	–	–	–	–	–	–	–	IC50 (Plasmodium falciparum [31]): 30 µg/mL (≈ 127 µM)
CC1(C)C=Cc2cc(CNCc3ccccc3)c(O)cc2O1	0.16	0.91	534	65	57	356	63	0.1	0.9	–
CC1(C)CCc2c(ccc(CNCCc3ccccc3)c2O)O1	0.01	6.5	53	141	36	3600	6	0.7	0.3	–
CC1(C)CCc2c(ccc(CNCc3ccccc3)c2O)O1	0.053	22	57	52	60	1130	3	1	1	–
CC1(C)CCc2cc(CNCCCc3ccccc3)c3c(c2O1)CCC(C)(C)O3	0.37	0.83	5.2	11	2.6	7	3	0.5	0.2	–
COc1ccc(C(=O)/C=C(\O)C(F)(F)C(F)(F)F)c(O)c1	–	–	–	–	–	–	–	–	–	IC50 [32]: 0.17 µM; IC50 (Plasmodium falciparum [33]): 0.14 µM
CC1(C)C=Cc2cc(CNCCCCc3ccccc3)c(O)cc2O1	0.079	1.09	17	25	19	241	17	1	0.8	–
CC1(C)CCc2cc(CNCc3ccccc3)c3c(c2O1)CCC(C)(C)O3	0.47	1.4	9.5	13	5.6	12	4	0.6	0.4	–
CC1(C)CCc2cc(C(O)CNCCCc3ccccc3)c(O)cc2O1 (centres undefined)	0.017	5.3	28	36	25	1470	5	0.9	0.7	–
